This note sets out measurements from patent US7410979B2, “Synergistically effective combinations of dihaloacetamide compounds and interferon or ribavirin against HCV infections” (Rigel Pharmaceuticals, Inc., priority 2003, dated 2008).

For the test, the system named is HCV NS3. Nature of the test: Quantitative Western blot of HCV NS3 in replicon cells. The class given is cell-based. The protocol: Certain exemplary synergistic combinations of the invention can also be tested for their ability to inhibit HCV replication using a quantitative Western blot analysis with antibodies specific for the HCV nonstructural protein NS3. Actively dividing 9-13 replicon cells can be seeded into 6-well plates at a density of 1×10^5 cells/well in a volume of 2 ml/well and can be incubated at 37° C. and 5% CO2 for 24 hours. Various concentrations of test compounds (in a volume of 10 ul) were can be added to the wells and the cells can be incubated for another 48 hours. Protein samples can be prepared from the cultured cells, then could be resolved on a SDS-PAGE gel and then could be transferred to a nitrocellulose membrane. The membrane can be blocked with 5% non-fat milk in PBS for 1 hour at room temperature. Primary antibody (anti NS3 antibody; Rigel Pharmaceuticals, South San Francisco, Calif.) incubation can be performed for 1 hour at room temperature, after which the membrane can be washed 3 times (for 15 min per time) with PBST (PBS plus 0.1% Tween 20). Horseradish peroxidase conjugated secondary antibody incubation can be performed for 1 hour at room temperature and the membrane can be washed 3 times (for 15 min per time) with PBST. The membrane can then be soaked in substrate solution (Pierce) and can then be exposed to a film or quantified using an imager. In this assay, the amount of test synergetic combination that yields a 50% reduction in the amount of NS3 protein translated as compared to a control sample (IC50) can be determined.
In general terms: A western blot detects proteins with antibodies after separation by electrophoresis.

Regarding `O=C(Nc1ccnc(-c2cc(-c3c(Cl)cccc3Cl)no2)c1)C(Cl)Cl` [compound I], the “HCV NS3 protein level” value (FIG. 2, 100 nM of compound I and 20 μm ribavirin) is recorded as “eliminated”. Further, the “synergy between compound I and ribavirin” value (FIG. 2, ribavirin at constant concentration, concentration of compound I varied) is listed as “synergy”. Under “FIG. 3, compound I, interferon-α and ribavirin”, the “synergistic effects on HCV replication” value is listed as “synergistic effects”. In addition, under “FIGS. 3(c) and 3(d), increasing concentrations of compound I in combination with interferon-α and ribavirin”, the “HCV NS3” value was “effectively eliminates”.
On to interferon-α, for which the “effectiveness against HCV replication, as indicated by the reduction of HCV NS3 in replicon cells” value (FIG. 3(a), interferon-α alone at elevated concentrations) was “effective”.
